Results as given in PubChem BioAssay (NCI).
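In this assay, cells in 96-well plates receive the compound at five concentrations for 48 hours. Endpoints are linearly interpolated between the surrounding concentrations. At the TGI there is no net growth.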

What was measured:
Test in all cases: DTP human tumour cell line panel, 48 h
M14 melanoma = tested on: M14 melanoma
OVCAR-4 ovarian = tested on: OVCAR-4 ovarian
OVCAR-8 ovarian = tested on: OVCAR-8 ovarian
HT29 colon = tested on: HT29 colon
DU-145 prostate = tested on: DU-145 prostate
U251 CNS = tested on: U251 CNS
COLO 205 colon = tested on: COLO 205 colon
SF-539 CNS = tested on: SF-539 CNS
TK-10 renal = tested on: TK-10 renal
KM12 colon = tested on: KM12 colon
PC-3 prostate = tested on: PC-3 prostate
HOP-62 NSCLC = tested on: HOP-62 NSCLC
UACC-257 melanoma = tested on: UACC-257 melanoma
HS 578T breast = tested on: HS 578T breast
NCI-H226 lung = tested on: NCI-H226 lung
SW-620 colon = tested on: SW-620 colon
SK-MEL-28 melanoma = tested on: SK-MEL-28 melanoma
786-0 renal = tested on: 786-0 renal
RPMI-8226 leukemia = tested on: RPMI-8226 leukemia
SNB-75 CNS = tested on: SNB-75 CNS
MDA-MB-435 = tested on: MDA-MB-435
CCRF-CEM leukemia = tested on: CCRF-CEM leukemia
SF-268 CNS = tested on: SF-268 CNS
BT-549 breast = tested on: BT-549 breast
IGROV1 ovarian = tested on: IGROV1 ovarian
OVCAR-5 ovarian = tested on: OVCAR-5 ovarian
UO-31 renal = tested on: UO-31 renal
HCT-116 colon = tested on: HCT-116 colon
MDA-N = tested on: MDA-N
A549 NSCLC = tested on: A549 NSCLC
K-562 leukemia = tested on: K-562 leukemia
EKVX NSCLC = tested on: EKVX NSCLC
OVCAR-3 ovarian = tested on: OVCAR-3 ovarian
A498 renal = tested on: A498 renal
SK-MEL-5 melanoma = tested on: SK-MEL-5 melanoma
SNB-19 CNS = tested on: SNB-19 CNS
NCI-H23 lung = tested on: NCI-H23 lung
HCC-2998 colon = tested on: HCC-2998 colon
SR leukemia = tested on: SR leukemia
UACC-62 melanoma = tested on: UACC-62 melanoma
LOX IMVI melanoma = tested on: LOX IMVI melanoma
HL-60(TB) leukemia = tested on: HL-60(TB) leukemia
SN12C renal = tested on: SN12C renal
MDA-MB-231 breast = tested on: MDA-MB-231 breast
SF-295 CNS = tested on: SF-295 CNS
RXF 393 renal = tested on: RXF 393 renal
ACHN renal = tested on: ACHN renal
MALME-3M melanoma = tested on: MALME-3M melanoma
MCF7 breast = tested on: MCF7 breast
SK-OV-3 ovarian = tested on: SK-OV-3 ovarian
CAKI-1 renal = tested on: CAKI-1 renal
HCT-15 colon = tested on: HCT-15 colon
MOLT-4 leukemia = tested on: MOLT-4 leukemia
NCI-H460 lung = tested on: NCI-H460 lung
SK-MEL-2 melanoma = tested on: SK-MEL-2 melanoma
HOP-92 NSCLC = tested on: HOP-92 NSCLC
NCI/ADR-RES ovarian = tested on: NCI/ADR-RES ovarian
NCI-H522 lung = tested on: NCI-H522 lung
T-47D breast = tested on: T-47D breast

Q: For `CCOc1snc(C(Cl)(Cl)Cl)c1Cl`, which TGI (M14 melanoma) is on record?
A: > 100 µM

Q: What about the TGI (OVCAR-4 ovarian) of the same compound?
A: > 100 µM

Q: What about the TGI (OVCAR-8 ovarian) of the same compound?
A: 94.4 µM

Q: And the TGI (HT29 colon)?
A: 28.9 µM

Q: And the TGI (DU-145 prostate)?
A: > 100 µM

Q: And the TGI (U251 CNS)?
A: > 100 µM

Q: And the TGI (COLO 205 colon)?
A: 48.4 µM

Q: What about the TGI (SF-539 CNS) of the same compound?
A: > 100 µM

Q: What about the TGI (TK-10 renal) of the same compound?
A: > 100 µM

Q: What about the TGI (KM12 colon) of the same compound?
A: 56.7 µM

Q: What about the TGI (PC-3 prostate) of the same compound?
A: > 100 µM

Q: What about the TGI (HOP-62 NSCLC) of the same compound?
A: > 100 µM

Q: What about the TGI (UACC-257 melanoma) of the same compound?
A: 33.9 µM

Q: What about the TGI (HS 578T breast) of the same compound?
A: > 100 µM

Q: And the TGI (NCI-H226 lung)?
A: 32.5 µM

Q: And the TGI (SW-620 colon)?
A: > 100 µM

Q: What about the TGI (SK-MEL-28 melanoma) of the same compound?
A: 94 µM

Q: What about the TGI (786-0 renal) of the same compound?
A: > 100 µM

Q: And the TGI (RPMI-8226 leukemia)?
A: 59.1 µM

Q: What about the TGI (SNB-75 CNS) of the same compound?
A: 54.9 µM

Q: What about the TGI (MDA-MB-435) of the same compound?
A: > 100 µM

Q: What about the TGI (CCRF-CEM leukemia) of the same compound?
A: 54.5 µM

Q: What about the TGI (SF-268 CNS) of the same compound?
A: 46.1 µM

Q: What about the TGI (BT-549 breast) of the same compound?
A: 70.6 µM

Q: What about the TGI (IGROV1 ovarian) of the same compound?
A: > 100 µM

Q: And the TGI (OVCAR-5 ovarian)?
A: > 100 µM

Q: What about the TGI (UO-31 renal) of the same compound?
A: 45.5 µM

Q: And the TGI (HCT-116 colon)?
A: 89.2 µM

Q: What about the TGI (MDA-N) of the same compound?
A: > 100 µM

Q: And the TGI (A549 NSCLC)?
A: 95.4 µM

Q: And the TGI (K-562 leukemia)?
A: > 100 µM

Q: What about the TGI (EKVX NSCLC) of the same compound?
A: 79.4 µM

Q: And the TGI (OVCAR-3 ovarian)?
A: 37.8 µM

Q: What about the TGI (A498 renal) of the same compound?
A: 62.8 µM

Q: What about the TGI (SK-MEL-5 melanoma) of the same compound?
A: 21.1 µM

Q: And the TGI (SNB-19 CNS)?
A: 74.9 µM

Q: And the TGI (NCI-H23 lung)?
A: 44.3 µM

Q: And the TGI (HCC-2998 colon)?
A: 63.3 µM

Q: What about the TGI (SR leukemia) of the same compound?
A: 35.6 µM

Q: What about the TGI (UACC-62 melanoma) of the same compound?
A: > 100 µM

Q: And the TGI (LOX IMVI melanoma)?
A: 42.8 µM

Q: What about the TGI (HL-60(TB) leukemia) of the same compound?
A: 37.7 µM

Q: And the TGI (SN12C renal)?
A: 89.7 µM

Q: And the TGI (MDA-MB-231 breast)?
A: > 100 µM

Q: And the TGI (SF-295 CNS)?
A: 74.7 µM

Q: What about the TGI (RXF 393 renal) of the same compound?
A: 27.6 µM

Q: What about the TGI (ACHN renal) of the same compound?
A: > 100 µM

Q: What about the TGI (MALME-3M melanoma) of the same compound?
A: 80.2 µM

Q: And the TGI (MCF7 breast)?
A: 78.9 µM

Q: And the TGI (SK-OV-3 ovarian)?
A: > 100 µM

Q: What about the TGI (CAKI-1 renal) of the same compound?
A: 83.7 µM

Q: What about the TGI (HCT-15 colon) of the same compound?
A: > 100 µM

Q: What about the TGI (MOLT-4 leukemia) of the same compound?
A: 38 µM

Q: What about the TGI (NCI-H460 lung) of the same compound?
A: > 100 µM

Q: What does the source list for `CCN(CC)c1ccc(NC(=S)NN(C)C)cc1`?
A: TGI (M14 melanoma): > 10 µM; TGI (SK-MEL-2 melanoma): > 10 µM; TGI (OVCAR-4 ovarian): > 10 µM; TGI (OVCAR-8 ovarian): > 10 µM; TGI (HT29 colon): > 10 µM; TGI (DU-145 prostate): > 10 µM; TGI (U251 CNS): > 10 µM; TGI (COLO 205 colon): > 10 µM; TGI (SF-539 CNS): > 10 µM; TGI (TK-10 renal): > 10 µM; TGI (KM12 colon): > 10 µM; TGI (PC-3 prostate): > 10 µM; TGI (HOP-62 NSCLC): > 10 µM; TGI (UACC-257 melanoma): > 10 µM; TGI (HS 578T breast): > 10 µM; TGI (NCI-H226 lung): > 10 µM; TGI (HOP-92 NSCLC): > 10 µM; TGI (SW-620 colon): > 10 µM; TGI (SK-MEL-28 melanoma): > 10 µM; TGI (786-0 renal): > 10 µM; TGI (RPMI-8226 leukemia): > 10 µM; TGI (SNB-75 CNS): > 10 µM; TGI (MDA-MB-435): > 10 µM; TGI (CCRF-CEM leukemia): > 10 µM; TGI (SF-268 CNS): > 10 µM; TGI (NCI/ADR-RES ovarian): > 10 µM; TGI (IGROV1 ovarian): > 10 µM; TGI (UO-31 renal): > 10 µM; TGI (HCT-116 colon): > 10 µM; TGI (MDA-N): > 10 µM; TGI (A549 NSCLC): > 10 µM; TGI (K-562 leukemia): > 10 µM; TGI (EKVX NSCLC): > 10 µM; TGI (OVCAR-3 ovarian): > 10 µM; TGI (A498 renal): > 10 µM; TGI (SK-MEL-5 melanoma): > 10 µM; TGI (SNB-19 CNS): > 10 µM; TGI (NCI-H23 lung): > 10 µM; TGI (HCC-2998 colon): > 10 µM; TGI (SR leukemia): > 10 µM; TGI (UACC-62 melanoma): > 10 µM; TGI (LOX IMVI melanoma): > 10 µM; TGI (HL-60(TB) leukemia): > 10 µM; TGI (NCI-H522 lung): > 10 µM; TGI (SN12C renal): > 10 µM; TGI (MDA-MB-231 breast): > 10 µM; TGI (SF-295 CNS): > 10 µM; TGI (RXF 393 renal): > 10 µM; TGI (ACHN renal): > 10 µM; TGI (MALME-3M melanoma): > 10 µM; TGI (MCF7 breast): > 10 µM; TGI (T-47D breast): > 10 µM; TGI (SK-OV-3 ovarian): > 10 µM; TGI (CAKI-1 renal): > 10 µM; TGI (HCT-15 colon): > 10 µM; TGI (MOLT-4 leukemia): > 10 µM; TGI (NCI-H460 lung): > 10 µM
